# Like-named read-outs stand apart in the source and are kept apart here.
# Tests used:
# [1] = assay type: in vivo, Mäuse (CD-1 Mausstamm); conditions: for Effekte 7 Tage nach Gabe / Effekte 1 h nach Gabe / Effekte 2 h nach Gabe / Effekte 24 h nach Gabe / Temp. (rektal): single dose; for Temp. (rektal): measured 1 hour after application
# Procedure: Zur Beurteilung und Abschätzung möglicher Nebenwirkungen (neurodegenerative, phsychotrope Effekte etc.) bzw. toxischer Effekte ausgehend von der Verbindung 2 wurden Mäuse (CD-1 Mausstamm) in einem modifizierten Irwin-Grid Modell bei einmaliger Gabe (5, 10 und 20 mg/kg; p.o.) über eine Zeitdauer von 7 Tagen beobachtet (S. Irwin et al. Psychopharmacologia 1968, 13, 222-257). Die Ergebnisse hierzu werden in nachfolgender Tabelle 7 gezeigt: Tabelle 7: […]
# [2] = test system: Salmonella thyphimurium TA100; assay type: cell-based; conditions: for AMESTA100 mit S9: with rat liver S9; for AMESTA100 ohne S9: without S9
# Procedure: (§1) Die Verbindung 2 wurde in einem Fluktuationsassay gegenüber den Mutanten-Stämmen TA98 und TA100 des Bakteriums Salmonella thyphimurium bei drei Konzentrationen (2.5; 5 und 10µM) auf Mutagenität hin untersucht. Die Mutagenitätsuntersuchungen wurden ferner in Gegenwart des Rattenleberenzyms S9 durchgeführt.
# [3] = test system: Salmonella thyphimurium TA98; assay type: cell-based; conditions: for AMES TA98 mit S9: with rat liver S9; for AMES TA98 ohne S9: without S9
# Procedure: as §1
# [4] = test system: humanen Xenograft-Modellen; assay: In vivo activity in xenograft models; set-up: species or system human; conditions: Hautkrebs, Nierenzellkarzinom und Brustkrebs
# Description: Die in vivo Aktivität der Verbindung 2 wurde an verschiedenen humanen Xenograft-Modellen überprüft.
compound,measurement,setting,value
"O=C(Nc1ccc2ncccc2c1)C(=O)c1cn(Cc2ccc(Cl)cc2)c2ccccc12 [Verbindung 2, 2-[1-(4-Chlor-benzyl)-1 H-indol-3-yl]-2-oxo-N-chinolin-6-yl-acetamid]",Effekte 7 Tage nach Gabe,[1]; 5 mg/kg p.o.,Kein Effekt
same,Effekte 1 h nach Gabe,[1]; 5 mg/kg p.o.,Kein Effekt
same,Effekte 2 h nach Gabe,[1]; 5 mg/kg p.o.,Kein Effekt
same,Effekte 24 h nach Gabe,[1]; 5 mg/kg p.o.,2/6 Durchfall
same,Temp. (rektal),[1]; 5 mg/kg p.o.,37.5 ± 0.2
same,Effekte 7 Tage nach Gabe,[1]; 10 mg/kg p.o.,Kein Effekt
same,Effekte 1 h nach Gabe,[1]; 10 mg/kg p.o.,1/6 Aufregung 1/6 Hyperreaktivität 1/6 Reizbarkeit 2/6 Berührungsrea ktivität 1/6 Stimmfähigkeit
same,Effekte 2 h nach Gabe,[1]; 10 mg/kg p.o.,2/6 Schwanzhypert onie 1/6 Hyperreaktivität 1/6 Reizbarkeit 1/6 Berührungsrea ktivität 1/6 Stimmfähigkeit
same,Effekte 24 h nach Gabe,[1]; 10 mg/kg p.o.,Kein Effekt
same,Temp. (rektal),[1]; 10 mg/kg p.o.,37.1 ± 0.1
same,Effekte 7 Tage nach Gabe,[1]; 20 mg/kg p.o.,Kein Effekt
same,Effekte 1 h nach Gabe,[1]; 20 mg/kg p.o.,Kein Effekt
same,Effekte 2 h nach Gabe,[1]; 20 mg/kg p.o.,Kein Effekt
same,Effekte 24 h nach Gabe,[1]; 20 mg/kg p.o.,1/6 Durchfall
same,Temp. (rektal),[1]; 20 mg/kg p.o.,37.4 ± 0.1
same,toxische Effekte im modifizierten Irwin-Grid Test,"[1]; single dose 5, 10 and 20mg/kg, overall conclusion",keine toxischen Effekte
same,AMESTA100 mit S9,[2]; 2.5 µM,inaktiv
same,AMESTA100 ohne S9,[2]; 2.5 µM,inaktiv
same,AMESTA100 mit S9,[2]; 5 µM,inaktiv
same,AMESTA100 ohne S9,[2]; 5 µM,inaktiv
same,AMESTA100 mit S9,[2]; 10 µM,inaktiv
same,AMESTA100 ohne S9,[2]; 10 µM,inaktiv
same,AMES TA98 mit S9,[3]; 2.5 µM,inaktiv
same,AMES TA98 ohne S9,[3]; 2.5 µM,inaktiv
same,AMES TA98 mit S9,[3]; 5 µM,inaktiv
same,AMES TA98 ohne S9,[3]; 5 µM,inaktiv
same,AMES TA98 mit S9,[3]; 10 µM,inaktiv
same,AMES TA98 ohne S9,[3]; 10 µM,inaktiv
same,Tumorwachstum in Xenograft-Modellen,[4],das Tumorwachstum in verschiedenen Xenograft-Modellen hemmt

# — EP1484329A1, “Indole derivatives with apoptosis inducing activity” (Zentaris GmbH, priority 2003, dated 2004)
